Columns and labels:
[1] = DPPH free radical scavenging activity (method of Lamaison et al.); type: physicochemical; details: methanolic DPPH, 517 nm
[2] = Superoxide radical scavenging activity (NBT method, McCord and Fridovich); type: biochemical; details: riboflavin/NBT, phosphate buffer pH 7.8, 560 nm
Protocol: Superoxide radical scavenging activity of test substances was determined by the method of McCord and Fridovich. […] The tubes were mixed well and optical densities were measured at 560 nm. The tubes were uniformly illuminated with an incandescent lamp for 15 min. and the optical densities were measured again at 560 nm. The percentage inhibition of superoxide radical generation was measured by comparing the absorbance values of control and those of the test substances. The IC50 values were obtained from the plot drawn of the concentration (μg) verses percentage inhibition.

paw edema = assay: Freund complete adjuvant induced arthritis model, paw edema; type: in vivo, Sprague Dawley rats; details: prednisolone 10 mg/kg body weight for 14 days; paw volume 13 days after FCA; vs CMC control
Protocol: The anti-oxidant and anti-inflammatory efficacies of Aphanamixis polystachya extract or fractions were evaluated by an in vivo study in Freund complete adjuvant induced arthritis model of Sprague Dawley rats. The rats of either sex were randomly selected and divided into three groups containing four animals in each group. Rats were supplemented with 50 mg/kg body weight of A. polystachya extract, or prednisolone (10 mg/kg body weight) for 14 days. The animals of control group received only the same volume of 1% Na CMC. At the 14 th day, Freund complete adjuvant (FCA) was injected subcutaneously in the sub-plantar region of the left hind paw of each animal. At the end of experiment, the animals were sacrificed and liver tissue samples were excised and stored in aliquot at −80° C. Blood samples were collected from each animal at a regular interval and paw volumes were measured by Plethysmography equipment after 13 days of FCA inoculation. The difference in volume of edema at the day of FCA injection and at 13th day after induction is considered as the inflammatory response. The in vivo anti-inflammatory response of A. polystachya was estimated by calculating, the percentage of inhibition of paw edema when compared with the CMC supplemented control rats and was compared with that of the positive control group supplemented with prednisolone as shown in FIG. 1.

DPPH method IC50 [1] [µg/mL] | NBT method IC50 (superoxide radical scavenging) [2] [µg/mL] | SMILES | inhibition in paw edema (paw edema) [%]
4.1 | 150 | O=C1O[C@H]([C@@H](O)CO)C(O)=C1O [Vitamin C] | 
 |  | C[C@]12C=CC(=O)C=C1CC[C@@H]1[C@@H]2[C@@H](O)C[C@@]2(C)[C@H]1CC[C@]2(O)C(=O)CO [prednisolone] | 47.4

Reference: patent publication US8337916B2, “Use of Aphanamixis polystacha extracts or fractions against 5-lipoxygenase mediated diseases” (Laila Nutraceuticals, priority 2007, dated 2012)
